# Measurements from patent US9550742B2, “11-OXO-10,11-dihydrodibenzo[B,F][1,4]thiazepine S-oxide derivatives and their use as dopamine D2 receptor antagonists” (The United States of America, as Represented by the …, priority 2013, dated 2017).
# Experiments:
# Alpha1A = Alpha1A (Homo sapiens, UniProt P35348); assay: Affinity profile panel: Alpha1A; conditions: inhibition of binding
# D4 = D4 (Homo sapiens, UniProt P21917); assay: Affinity profile panel: D4; conditions: inhibition of binding
# Beta2 = Beta2 (Homo sapiens, UniProt P07550); assay: Affinity profile panel: Beta2; conditions: inhibition of binding
# Beta2, sequence (P07550 whole entry): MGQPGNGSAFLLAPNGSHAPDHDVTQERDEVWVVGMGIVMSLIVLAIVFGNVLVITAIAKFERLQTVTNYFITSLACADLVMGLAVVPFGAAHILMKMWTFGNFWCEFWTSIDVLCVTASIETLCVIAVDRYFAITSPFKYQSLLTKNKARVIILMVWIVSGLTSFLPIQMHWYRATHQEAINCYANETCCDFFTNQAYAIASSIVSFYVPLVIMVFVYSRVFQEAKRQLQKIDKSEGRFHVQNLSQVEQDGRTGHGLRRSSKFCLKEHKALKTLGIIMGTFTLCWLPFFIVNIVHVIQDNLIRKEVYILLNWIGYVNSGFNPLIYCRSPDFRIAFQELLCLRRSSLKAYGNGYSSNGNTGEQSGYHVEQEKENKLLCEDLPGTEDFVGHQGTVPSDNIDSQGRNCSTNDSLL
# [1] = target: D3 human dopamine receptors (Homo sapiens, UniProt P35462); assay: D3 binding assay ([^3H]methylspiperone, HEK293 membranes)
# Description: Cells were cultured in Dulbecco's modified Eagle's Medium containing 10% FBS, 1,000 units/mL Penicillin, 1,000 mg/mL Streptomycin, 100 mM Sodium Pyruvate, 1 μg/mL Gentamicin, and […] G418. All cells were maintained at 37° C. in 5% CO2 and 90% humidity. For radioligand binding assays, cells were removed mechanically using calcium and magnesium-free Earle's Balanced Salt Solution (EBSS(−)). Intact cells were collected by centrifugation and then lysed with 5 mM Tris-HCl and 5 mM MgCl2 at pH 7.4 in a glass homogenizer. […] Membrane preparations were incubated for 90 min at room temperature with various concentrations of radioligand in a reaction volume of 250 μL EBSS containing 200 mM sodium metabisulfite. […] Bound ligand was separated from unbound by filtration through GF/C filters using a PerkinElmer cell harvester with ice cold EBSS (4 washes) and quantified on a Top-count (PerkinElmer) after addition of scintillation solution. […] In order to determine the affinity of a given compound for a receptor type, competition-binding assays were performed. […] Reactions were incubated, terminated, and quantified as indicated above.
# 5-HT1D = 5-HT1D (Homo sapiens, UniProt P28221); assay: Affinity profile panel: 5-HT1D; conditions: inhibition of binding
# D3 receptor = target: T1, D3 receptor (Rattus norvegicus, UniProt P19020); assay: Pramipexole-induced yawning; assay type: in vivo; conditions: rats, 3.2 and 10 mg/kg
# T1 construct: from tissue; host or cells: live rats (whole animal)
# From the text: Pramipexole, an agonist of the D3 receptor, produces yawning when administered subcutaneously. This response is known to be mediated by the D3 receptor and not the D2 receptor (Collins, Id.).
# The sumanirole-induced hypothermia and pramipexole-induced yawning experiments show ML321 can act selectively to block the D2 receptor without blocking the D3 receptor when administered to living animals. Thus, the D2 selectivity identified using cellular assays can also be seen in living animals.
# DAT = DAT (Homo sapiens, UniProt Q01959); assay: Affinity profile panel: DAT; conditions: inhibition of binding
# DAT, sequence (Q01959 whole entry, species assumed): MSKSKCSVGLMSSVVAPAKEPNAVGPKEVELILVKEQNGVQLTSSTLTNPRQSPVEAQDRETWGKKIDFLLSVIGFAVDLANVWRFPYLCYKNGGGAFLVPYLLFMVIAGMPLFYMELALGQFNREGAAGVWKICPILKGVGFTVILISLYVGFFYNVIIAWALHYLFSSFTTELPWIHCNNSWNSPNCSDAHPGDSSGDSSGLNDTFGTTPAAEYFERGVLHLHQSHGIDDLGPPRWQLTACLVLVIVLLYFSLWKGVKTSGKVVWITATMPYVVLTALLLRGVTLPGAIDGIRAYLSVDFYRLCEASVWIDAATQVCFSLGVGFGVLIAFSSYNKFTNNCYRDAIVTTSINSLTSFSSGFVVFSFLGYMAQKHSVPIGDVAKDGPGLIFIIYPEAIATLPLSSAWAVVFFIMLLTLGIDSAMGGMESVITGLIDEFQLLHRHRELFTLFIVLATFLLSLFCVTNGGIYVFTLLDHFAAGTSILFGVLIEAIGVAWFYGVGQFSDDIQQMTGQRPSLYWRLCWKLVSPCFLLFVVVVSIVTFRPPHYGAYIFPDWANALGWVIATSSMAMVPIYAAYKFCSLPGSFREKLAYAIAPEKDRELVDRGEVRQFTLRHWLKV
# From the text: (§1) Antipsychotic drugs (depending on the specific drug) typically interact with a range of serotonergic, adrenergic, histaminergic, and muscarinic receptors.
# D1 [2] = target: T2, D1 (Homo sapiens, UniProt P21728); assay: D1 binding assay (FIG. 2B)
# T2 sequence (P21728 whole entry): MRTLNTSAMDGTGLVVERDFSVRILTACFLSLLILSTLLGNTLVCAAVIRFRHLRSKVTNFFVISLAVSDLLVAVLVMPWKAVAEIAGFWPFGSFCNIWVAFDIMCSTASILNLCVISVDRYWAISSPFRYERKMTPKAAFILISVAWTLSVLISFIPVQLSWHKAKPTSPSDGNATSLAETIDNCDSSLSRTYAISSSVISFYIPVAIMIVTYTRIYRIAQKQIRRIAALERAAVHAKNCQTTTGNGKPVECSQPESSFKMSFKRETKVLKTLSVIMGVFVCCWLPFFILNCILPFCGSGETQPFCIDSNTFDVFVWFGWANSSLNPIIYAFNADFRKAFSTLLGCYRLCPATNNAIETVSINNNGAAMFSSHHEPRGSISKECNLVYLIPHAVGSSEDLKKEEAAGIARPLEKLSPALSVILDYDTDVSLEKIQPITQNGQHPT
# 5-HT6 = 5-HT6 (Homo sapiens, UniProt P50406); assay: Affinity profile panel: 5-HT6; conditions: inhibition of binding
# 5-HT6, sequence (P50406 whole entry, species assumed): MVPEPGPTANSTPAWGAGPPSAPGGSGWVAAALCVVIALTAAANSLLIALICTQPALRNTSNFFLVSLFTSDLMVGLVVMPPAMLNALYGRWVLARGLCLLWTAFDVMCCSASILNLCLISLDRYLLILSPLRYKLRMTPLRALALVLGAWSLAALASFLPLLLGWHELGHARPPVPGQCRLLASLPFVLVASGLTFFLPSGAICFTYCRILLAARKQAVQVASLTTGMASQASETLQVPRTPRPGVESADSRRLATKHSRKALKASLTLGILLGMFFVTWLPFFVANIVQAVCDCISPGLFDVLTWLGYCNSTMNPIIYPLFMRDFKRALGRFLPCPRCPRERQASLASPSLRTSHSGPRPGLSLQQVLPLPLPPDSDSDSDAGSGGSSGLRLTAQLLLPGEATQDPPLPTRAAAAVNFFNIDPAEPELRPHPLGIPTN
# Alpha2A = Alpha2A (Homo sapiens, UniProt P08913); assay: Affinity profile panel: Alpha2A; conditions: inhibition of binding
# 5-HT2A = 5-HT2A (Homo sapiens, UniProt P28223); assay: Affinity profile panel: 5-HT2A; conditions: inhibition of binding
# 5-HT2A, sequence (P28223 whole entry, species assumed): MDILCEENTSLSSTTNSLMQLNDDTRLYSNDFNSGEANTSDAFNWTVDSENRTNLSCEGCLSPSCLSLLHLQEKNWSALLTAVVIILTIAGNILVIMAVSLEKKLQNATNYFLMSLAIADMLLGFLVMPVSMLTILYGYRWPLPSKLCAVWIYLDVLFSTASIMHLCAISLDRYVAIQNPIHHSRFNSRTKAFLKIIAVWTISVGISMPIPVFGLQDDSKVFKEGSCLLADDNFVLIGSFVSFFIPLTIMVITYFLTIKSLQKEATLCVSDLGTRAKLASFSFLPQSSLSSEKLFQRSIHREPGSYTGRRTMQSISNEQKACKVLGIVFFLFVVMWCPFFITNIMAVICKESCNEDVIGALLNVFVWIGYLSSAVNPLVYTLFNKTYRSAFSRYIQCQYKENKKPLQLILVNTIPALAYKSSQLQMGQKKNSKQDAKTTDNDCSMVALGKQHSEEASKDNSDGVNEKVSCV
# M5 = M5 (Homo sapiens, UniProt P08912); assay: Affinity profile panel: M5; conditions: inhibition of binding
# Alpha1B = Alpha1B (Homo sapiens, UniProt P35368); assay: Affinity profile panel: Alpha1B; conditions: inhibition of binding
# NET = NET (Homo sapiens, UniProt P23975); assay: Affinity profile panel: NET; conditions: inhibition of binding
# From the text: as §1
# H2 = H2 (Homo sapiens, UniProt P25021); assay: Affinity profile panel: H2; conditions: inhibition of binding
# Sigma 1 = Sigma 1 (Homo sapiens, UniProt Q99720); assay: Affinity profile panel: Sigma 1; conditions: inhibition of binding
# Sigma 1, sequence (Q99720 whole entry): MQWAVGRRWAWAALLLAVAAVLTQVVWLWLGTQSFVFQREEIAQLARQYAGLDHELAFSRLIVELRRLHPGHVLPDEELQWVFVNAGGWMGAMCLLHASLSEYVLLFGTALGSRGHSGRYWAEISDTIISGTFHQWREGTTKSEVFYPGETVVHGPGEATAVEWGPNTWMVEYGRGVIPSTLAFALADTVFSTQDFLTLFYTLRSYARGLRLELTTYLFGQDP
# Beta1 = Beta1 (Homo sapiens, UniProt P08588); assay: Affinity profile panel: Beta1; conditions: inhibition of binding
# Beta1, sequence (P08588 whole entry): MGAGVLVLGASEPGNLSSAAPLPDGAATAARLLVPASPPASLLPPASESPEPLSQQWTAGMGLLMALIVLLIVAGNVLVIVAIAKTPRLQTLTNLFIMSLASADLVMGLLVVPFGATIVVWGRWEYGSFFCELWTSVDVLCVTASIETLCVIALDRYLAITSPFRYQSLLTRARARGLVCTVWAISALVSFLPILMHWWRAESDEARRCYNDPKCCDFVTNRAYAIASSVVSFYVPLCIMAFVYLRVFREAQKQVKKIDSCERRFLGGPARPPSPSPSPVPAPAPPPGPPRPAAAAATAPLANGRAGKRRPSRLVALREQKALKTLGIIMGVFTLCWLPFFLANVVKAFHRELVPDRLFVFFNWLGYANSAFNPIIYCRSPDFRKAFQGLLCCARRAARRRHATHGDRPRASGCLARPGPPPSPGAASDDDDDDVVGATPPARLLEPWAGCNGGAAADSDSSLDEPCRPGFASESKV
# 5-HT1E = 5-HT1E (Homo sapiens, UniProt P28566); assay: Affinity profile panel: 5-HT1E; conditions: inhibition of binding
# 5-HT1E, sequence (P28566 whole entry, species assumed): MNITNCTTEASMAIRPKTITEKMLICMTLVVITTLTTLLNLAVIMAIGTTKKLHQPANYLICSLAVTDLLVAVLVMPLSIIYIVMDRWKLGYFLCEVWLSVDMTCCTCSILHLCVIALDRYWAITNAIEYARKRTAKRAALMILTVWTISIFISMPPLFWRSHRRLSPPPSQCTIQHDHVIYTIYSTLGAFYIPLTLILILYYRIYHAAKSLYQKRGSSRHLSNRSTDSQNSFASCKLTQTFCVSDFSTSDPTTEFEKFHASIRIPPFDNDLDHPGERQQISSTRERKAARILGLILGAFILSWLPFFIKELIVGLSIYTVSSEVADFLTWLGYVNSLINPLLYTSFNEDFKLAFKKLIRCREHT
# BZP Rat Brain Site = assay: Affinity profile panel: BZP Rat Brain Site; conditions: inhibition of binding
# D5 = D5 (Homo sapiens, UniProt P21918); assay: Affinity profile panel: D5; conditions: inhibition of binding
# 5-HT7 = 5-HT7 (Homo sapiens, UniProt P34969); assay: Affinity profile panel: 5-HT7; conditions: inhibition of binding
# 5-HT7, sequence (P34969 whole entry, species assumed): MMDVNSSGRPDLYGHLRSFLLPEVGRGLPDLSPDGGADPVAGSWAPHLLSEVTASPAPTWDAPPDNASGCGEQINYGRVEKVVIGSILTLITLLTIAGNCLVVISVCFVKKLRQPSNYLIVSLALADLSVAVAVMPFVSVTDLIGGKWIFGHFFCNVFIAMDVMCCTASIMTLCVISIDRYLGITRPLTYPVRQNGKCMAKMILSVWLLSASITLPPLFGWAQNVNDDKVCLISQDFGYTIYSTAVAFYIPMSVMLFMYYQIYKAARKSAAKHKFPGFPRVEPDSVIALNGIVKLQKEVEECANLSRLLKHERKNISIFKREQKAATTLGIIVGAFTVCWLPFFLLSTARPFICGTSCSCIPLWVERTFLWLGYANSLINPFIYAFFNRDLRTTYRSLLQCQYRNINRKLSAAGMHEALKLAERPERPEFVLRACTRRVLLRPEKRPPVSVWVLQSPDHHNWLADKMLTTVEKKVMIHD
# KOR = KOR (Homo sapiens, UniProt P41145); assay: Affinity profile panel: KOR; conditions: inhibition of binding
# D1 [3] = target: T2, D1; assay: Affinity profile panel: D1; conditions: inhibition of binding
# H3 = H3 (Homo sapiens, UniProt Q9Y5N1); assay: Affinity profile panel: H3; conditions: inhibition of binding
# M3 = M3 (Homo sapiens, UniProt P20309); assay: Affinity profile panel: M3; conditions: inhibition of binding
# [4] = target: D3 dopamine receptor (DAR) (Homo sapiens, UniProt P35462); assay: D3 beta-arrestin functional assay (PathHunter, CHO); assay type: cell-based; conditions: dose response curve; read-out: D3 β-arrestin assay AC50
# From the text: A CHO cell line was engineered to overexpress D3 dopamine receptor (DAR) and fused with a small 42-amino acid fragment of β-gal called ProLink™. In addition, these cells stably express a fusion protein of β-arrestin and a larger N-terminal deletion mutant of β-galactosidase (“enzyme acceptor”). When DAR is activated by dopamine, it stimulates binding of β-arrestin to ProLink-tagged DARs, and the two complementary parts of β-galactosidase form a functional enzyme. When substrate (PathHunter® Detection reagent) is added, βgalactosidase hydrolyzes it and generates a chemiluminescent signal.
# For the 1,536-well assay, D3 PathHunter® β-arrestin cells were seeded at 2,100 cells/well in 3 μL/well media (DiscoveRx Plating Reagent 2) with MultiDrop Combi dispenser (Thermo Scientific, Logan, Utah) onto white tissue culture treated 1,536-well Aurora plates (Brooks Automation, Chelmsford, Mass.) and allowed to attach overnight at 37° C., 5% CO2. Next, 23 nL/well of compound solutions in DMSO were added with a pintool transfer (Kalypsis, San Diego, Calif.). The cells were stimulated by compounds for 90 minutes at 37° C., 5% CO2, after which 1.5 μL/well of DiscoveRx detection reagent was added with BioRAPTR FRD dispenser. […] The plates were incubated at ambient temperature for 1 h, and the luminescent signal was read on ViewLux plate reader (PerkinElmer, Waltham, Mass.).
# M1 = M1 (Homo sapiens, UniProt P11229); assay: Affinity profile panel: M1; conditions: inhibition of binding
# H1 = H1 (Homo sapiens, UniProt P35367); assay: Affinity profile panel: H1; conditions: inhibition of binding
# H1, sequence (P35367 whole entry): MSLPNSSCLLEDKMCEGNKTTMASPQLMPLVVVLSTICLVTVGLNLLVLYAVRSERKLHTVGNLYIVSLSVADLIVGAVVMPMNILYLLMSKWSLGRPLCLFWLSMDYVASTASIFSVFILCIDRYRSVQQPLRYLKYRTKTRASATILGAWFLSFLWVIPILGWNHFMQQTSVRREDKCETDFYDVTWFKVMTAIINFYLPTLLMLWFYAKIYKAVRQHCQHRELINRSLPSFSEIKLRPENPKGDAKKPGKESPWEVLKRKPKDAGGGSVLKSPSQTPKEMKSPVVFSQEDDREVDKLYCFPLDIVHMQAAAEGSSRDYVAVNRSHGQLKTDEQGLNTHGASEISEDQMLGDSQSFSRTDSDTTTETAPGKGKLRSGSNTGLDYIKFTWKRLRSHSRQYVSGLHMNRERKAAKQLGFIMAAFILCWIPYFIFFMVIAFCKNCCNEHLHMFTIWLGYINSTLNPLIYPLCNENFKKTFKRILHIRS
# 5-HT3 = 5-HT3 (Homo sapiens, UniProt P46098); assay: Affinity profile panel: 5-HT3; conditions: inhibition of binding
# Alpha1A, sequence (P35348 whole entry): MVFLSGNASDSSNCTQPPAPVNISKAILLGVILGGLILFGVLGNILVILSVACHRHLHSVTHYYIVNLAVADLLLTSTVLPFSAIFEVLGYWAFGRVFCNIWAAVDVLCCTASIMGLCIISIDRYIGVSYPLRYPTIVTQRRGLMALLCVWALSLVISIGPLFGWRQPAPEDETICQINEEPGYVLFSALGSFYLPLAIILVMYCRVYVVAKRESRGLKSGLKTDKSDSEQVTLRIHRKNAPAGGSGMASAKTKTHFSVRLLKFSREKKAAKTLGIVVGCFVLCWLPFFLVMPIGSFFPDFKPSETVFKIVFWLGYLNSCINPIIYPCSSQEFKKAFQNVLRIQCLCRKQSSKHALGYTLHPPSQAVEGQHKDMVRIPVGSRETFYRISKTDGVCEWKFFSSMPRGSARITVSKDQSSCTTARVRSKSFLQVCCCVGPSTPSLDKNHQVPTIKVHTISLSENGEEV
structure (smiles),measurement,setting,value
"CN1C(=O)c2ccccc2[S@+]([O-])c2ccc(C(=O)NCCc3cccs3)cc21 [Compound 55, 10-Methyl-11-oxo-N-(2-(thiophen-2-yl)ethyl)-10,11-dihydrodibenzo[b,f][1,4]thiazepine-8-carboxamide 5-(S)-oxide]",Inhibition (%) Alpha1A,Alpha1A,−13.4%
same,Inhibition (%) D4,D4,32.2%
same,Inhibition (%) Beta2,Beta2,−13.2%
same,Ki,[1],2.9 µM
same,Inhibition (%) 5-HT1D,5-HT1D,13.1%
same,Effect on pramipexole-induced yawning,D3 receptor,no effect on pramipexole-induced yawning
same,Inhibition (%) DAT,DAT,−5.3%
same,Ki,D1 [2],67.1 µM
same,Inhibition (%) 5-HT6,5-HT6,−15.6%
same,Inhibition (%) Alpha2A,Alpha2A,7.3%
same,Inhibition (%) 5-HT2A,5-HT2A,46.3%
same,Inhibition (%) M5,M5,−6.5%
same,Inhibition (%) Alpha1B,Alpha1B,−0.2%
same,Inhibition (%) NET,NET,8.9%
same,Inhibition (%) H2,H2,−9.2%
same,Inhibition (%) Sigma 1,Sigma 1,17.5%
same,Inhibition (%) Beta1,Beta1,12.6%
same,Inhibition (%) 5-HT1E,5-HT1E,9.9%
same,Inhibition (%) BZP Rat Brain Site,BZP Rat Brain Site,0.5%
same,Inhibition (%) D5,D5,−8.5%
same,Inhibition (%) 5-HT7,5-HT7,53.3%
same,Inhibition (%) KOR,KOR,18.2%
same,Inhibition (%) D1,D1 [3],−6.8%
same,Inhibition (%) H3,H3,−23.6%
same,Inhibition (%) M3,M3,5.2%
same,AC50,[4],12.9 µM
same,Inhibition (%) M1,M1,−0.6%
same,Inhibition (%) H1,H1,41.6%
same,Inhibition (%) 5-HT3,5-HT3,8.5%
